Results reported in USRE42890E1, “Furazanobenzimidazoles” (Basilea Pharmaceutica AG, priority 2003, dated 2011).
Where two headings read alike, the source gives them in different places.

Key:
[1] = system: Jurkat; test: MTS proliferation assay, Jurkat; assay type: cell-based, human; conditions: 72 h incubation, read-out: MTS proliferation assay IC 50 Jurkat
How it was run: (§1)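 Proliferation: RPMI-1640/FCS complete medium, 37 °C, 7.5% CO2, cells plated 24 h pre-dose; compounds at 10, 3, 1, 0.3 μM final for 72 h; MTS, 492 nm.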

[2] = system: Jily; test: MTS proliferation assay, Jily; assay type: cell-based; conditions: 72 h incubation, read-out: MTS proliferation assay IC 50 Jily
How it was run: (§2)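 Viability after 72 h compound exposure at 10, 3, 1 and 0.3 μM final was scored by MTS absorbance (492 nm, 3 h reagent incubation), with cells kept in RPMI-1640 containing 5% or 10% fetal calf serum.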

[3] = system: HT1080; test: MTS proliferation assay, HT1080; assay type: cell-based, human; conditions: HT1080, 72 h incubation, read-out: MTS proliferation assay IC 50 HT1080
How it was run: as §1

[4] = system: HeLa; test: MTS proliferation assay, HeLa; assay type: cell-based, human; conditions: 72 h incubation, read-out: MTS proliferation assay IC 50 HeLa
How it was run: as §1

[5] = system: MRC5; test: MTS proliferation assay, MRC5; assay type: cell-based; conditions: MRC5, 72 h incubation, read-out: MTS proliferation assay IC 50 MRC5
How it was run: as §2

[6] = system: adherent cells or suspension cells; test: Hoechst 33342 nuclear staining (fraction of apoptotic nuclei); assay type: cell-based; parameters: key: 0 relating to no activity; 1 relating to weak activity comprising less than 70% of the cells; score 2 relating to strong activity comprising more than 70% of the cells

## Cc1ccc(C(=O)Cn2c(-c3nonc3N)nc3ccccc32)cc1 [Example 44]
[1]
  IC50: < 10 nM
[2]
  IC50: 10 to 100 nM
[3]
  IC50: 10 to 100 nM
[4]
  IC50: 10 to 100 nM
[5]
  IC50: 10 to 100 nM
[6]; H460, conc 0.01 μm
  Hoechst 33342 nuclear staining score: 0
[6]; H460, conc 0.1 μm
  Hoechst 33342 nuclear staining score: 2 (score 2 relating to strong activity comprising more than 70% of the cells)
[6]; H460, conc 1 μm
  Hoechst 33342 nuclear staining score: 2 (score 2 relating to strong activity comprising more than 70% of the cells)
[6]; HeLa, conc 0.01 μm
  Hoechst 33342 nuclear staining score: 0
[6]; HeLa, conc 0.1 μm
  Hoechst 33342 nuclear staining score: 1 (1 relating to weak activity comprising less than 70% of the cells)
[6]; HeLa, conc 1 μm
  Hoechst 33342 nuclear staining score: 2 (score 2 relating to strong activity comprising more than 70% of the cells)
[6]; Jily, conc 0.01 μm
  Hoechst 33342 nuclear staining score: 0
[6]; Jily, conc 0.1 μm
  Hoechst 33342 nuclear staining score: 2 (score 2 relating to strong activity comprising more than 70% of the cells)
[6]; Jily, conc 1 μm
  Hoechst 33342 nuclear staining score: 2 (score 2 relating to strong activity comprising more than 70% of the cells)
[6]; Jurkat, conc 0.01 μm
  Hoechst 33342 nuclear staining score: 0
[6]; Jurkat, conc 0.1 μm
  Hoechst 33342 nuclear staining score: 2 (score 2 relating to strong activity comprising more than 70% of the cells)
[6]; Jurkat, conc 1 μm
  Hoechst 33342 nuclear staining score: 2 (score 2 relating to strong activity comprising more than 70% of the cells)
[6]; MRC5, conc 0.01 μm
  Hoechst 33342 nuclear staining score: 0
[6]; MRC5, conc 0.1 μm
  Hoechst 33342 nuclear staining score: 0
[6]; MRC5, conc 1 μm
  Hoechst 33342 nuclear staining score: 2 (score 2 relating to strong activity comprising more than 70% of the cells)
[6]; PBLs, conc 0.01 μm
  Hoechst 33342 nuclear staining score: 0
[6]; PBLs, conc 0.1 μm
  Hoechst 33342 nuclear staining score: 0
[6]; PBLs, conc 1 μm
  Hoechst 33342 nuclear staining score: 0

## Nc1ccc(C(=O)Cn2c(-c3nonc3N)nc3ccccc32)cc1 [Example 50]
[1]
  IC50: 10 to 100 nM
[2]
  IC50: 10 to 100 nM
[3]
  IC50: 10 to 100 nM
[4]
  IC50: 10 to 100 nM
[5]
  IC50: 10 to 100 nM
[6]; H460, conc 0.01 μm
  Hoechst 33342 nuclear staining score: 1 (1 relating to weak activity comprising less than 70% of the cells)
[6]; H460, conc 0.1 μm
  Hoechst 33342 nuclear staining score: 2 (score 2 relating to strong activity comprising more than 70% of the cells)
[6]; H460, conc 1 μm
  Hoechst 33342 nuclear staining score: 2 (score 2 relating to strong activity comprising more than 70% of the cells)
[6]; HeLa, conc 0.01 μm
  Hoechst 33342 nuclear staining score: 0
[6]; HeLa, conc 0.1 μm
  Hoechst 33342 nuclear staining score: 2 (score 2 relating to strong activity comprising more than 70% of the cells)
[6]; HeLa, conc 1 μm
  Hoechst 33342 nuclear staining score: 2 (score 2 relating to strong activity comprising more than 70% of the cells)
[6]; Jily, conc 0.01 μm
  Hoechst 33342 nuclear staining score: 2 (score 2 relating to strong activity comprising more than 70% of the cells)
[6]; Jily, conc 0.1 μm
  Hoechst 33342 nuclear staining score: 2 (score 2 relating to strong activity comprising more than 70% of the cells)
[6]; Jily, conc 1 μm
  Hoechst 33342 nuclear staining score: 2 (score 2 relating to strong activity comprising more than 70% of the cells)
[6]; Jurkat, conc 0.01 μm
  Hoechst 33342 nuclear staining score: 2 (score 2 relating to strong activity comprising more than 70% of the cells)
[6]; Jurkat, conc 0.1 μm
  Hoechst 33342 nuclear staining score: 2 (score 2 relating to strong activity comprising more than 70% of the cells)
[6]; Jurkat, conc 1 μm
  Hoechst 33342 nuclear staining score: 2 (score 2 relating to strong activity comprising more than 70% of the cells)
[6]; MRC5, conc 0.01 μm
  Hoechst 33342 nuclear staining score: 0
[6]; MRC5, conc 0.1 μm
  Hoechst 33342 nuclear staining score: 2 (score 2 relating to strong activity comprising more than 70% of the cells)
[6]; MRC5, conc 1 μm
  Hoechst 33342 nuclear staining score: 2 (score 2 relating to strong activity comprising more than 70% of the cells)
[6]; PBLs, conc 0.01 μm
  Hoechst 33342 nuclear staining score: 0
[6]; PBLs, conc 0.1 μm
  Hoechst 33342 nuclear staining score: 0
[6]; PBLs, conc 1 μm
  Hoechst 33342 nuclear staining score: 0

## Cl.Nc1ccc(OCn2c(-c3nonc3N)nc3ccccc32)cc1 [Example 100]
[1]
  IC50: 100 to 1000 nM
[2]
  IC50: > 1000 nM
[3]
  IC50: > 1000 nM
[4]
  IC50: > 1000 nM
[5]
  IC50: > 1000 nM
[6]; H460, conc 0.01 μm
  Hoechst 33342 nuclear staining score: 0
[6]; H460, conc 0.1 μm
  Hoechst 33342 nuclear staining score: 0
[6]; H460, conc 1 μm
  Hoechst 33342 nuclear staining score: 0
[6]; HeLa, conc 0.01 μm
  Hoechst 33342 nuclear staining score: 0
[6]; HeLa, conc 0.1 μm
  Hoechst 33342 nuclear staining score: 0
[6]; HeLa, conc 1 μm
  Hoechst 33342 nuclear staining score: 0
[6]; Jily, conc 0.01 μm
  Hoechst 33342 nuclear staining score: 0
[6]; Jily, conc 0.1 μm
  Hoechst 33342 nuclear staining score: 0
[6]; Jily, conc 1 μm
  Hoechst 33342 nuclear staining score: 1 (1 relating to weak activity comprising less than 70% of the cells)
[6]; Jurkat, conc 0.01 μm
  Hoechst 33342 nuclear staining score: 0
[6]; Jurkat, conc 0.1 μm
  Hoechst 33342 nuclear staining score: 0
[6]; Jurkat, conc 1 μm
  Hoechst 33342 nuclear staining score: 1 (1 relating to weak activity comprising less than 70% of the cells)
[6]; MRC5, conc 0.01 μm
  Hoechst 33342 nuclear staining score: 0
[6]; MRC5, conc 0.1 μm
  Hoechst 33342 nuclear staining score: 0
[6]; MRC5, conc 1 μm
  Hoechst 33342 nuclear staining score: 0
[6]; PBLs, conc 0.01 μm
  Hoechst 33342 nuclear staining score: 0
[6]; PBLs, conc 0.1 μm
  Hoechst 33342 nuclear staining score: 0
[6]; PBLs, conc 1 μm
  Hoechst 33342 nuclear staining score: 0

## CN(C)c1nonc1-c1nc2ccccc2n1CC(=O)c1ccc(Cl)cc1 [Example 4, Dimethyl-{4-[1-(4-chlorophenacyl)-1H-benzimidazol-2-yl]-furazan-3-yl}-amine]
[1]; Homo sapiens
  IC50: 10 to 100 nM
[2]
  IC50: 100 to 1000 nM
[3]; Homo sapiens, HT-1080
  IC50: 100 to 1000 nM
[4]; Homo sapiens
  IC50: 100 to 1000 nM
[5]; Homo sapiens
  IC50: 100 to 1000 nM
[6]; H460, conc 0.01 μm
  Hoechst 33342 nuclear staining score: 0
[6]; H460, conc 0.1 μm
  Hoechst 33342 nuclear staining score: 0
[6]; H460, conc 1 μm
  Hoechst 33342 nuclear staining score: 1 (1 relating to weak activity comprising less than 70% of the cells)
[6]; HeLa, conc 0.01 μm
  Hoechst 33342 nuclear staining score: 0
[6]; HeLa, conc 0.1 μm
  Hoechst 33342 nuclear staining score: 0
[6]; HeLa, conc 1 μm
  Hoechst 33342 nuclear staining score: 2 (score 2 relating to strong activity comprising more than 70% of the cells)
[6]; Jily, conc 0.01 μm
  Hoechst 33342 nuclear staining score: 0
[6]; Jily, conc 0.1 μm
  Hoechst 33342 nuclear staining score: 0
[6]; Jily, conc 1 μm
  Hoechst 33342 nuclear staining score: 2 (score 2 relating to strong activity comprising more than 70% of the cells)
[6]; Jurkat, conc 0.01 μm
  Hoechst 33342 nuclear staining score: 0
[6]; Jurkat, conc 0.1 μm
  Hoechst 33342 nuclear staining score: 0
[6]; Jurkat, conc 1 μm
  Hoechst 33342 nuclear staining score: 2 (score 2 relating to strong activity comprising more than 70% of the cells)
[6]; MRC5, conc 0.01 μm
  Hoechst 33342 nuclear staining score: 0
[6]; MRC5, conc 0.1 μm
  Hoechst 33342 nuclear staining score: 0
[6]; MRC5, conc 1 μm
  Hoechst 33342 nuclear staining score: 2 (score 2 relating to strong activity comprising more than 70% of the cells)
[6]; PBLs, conc 0.01 μm
  Hoechst 33342 nuclear staining score: 0
[6]; PBLs, conc 0.1 μm
  Hoechst 33342 nuclear staining score: 0
[6]; PBLs, conc 1 μm
  Hoechst 33342 nuclear staining score: 0

## COc1ccc(OCn2c(-c3nonc3N)nc3ccccc32)cc1 [Example 90]
[1]
  IC50: 100 to 1000 nM
[2]
  IC50: 100 to 1000 nM
[3]
  IC50: 100 to 1000 nM
[4]
  IC50: 100 to 1000 nM
[5]
  IC50: 100 to 1000 nM
[6]; HeLa, conc 0.01 μm
  Hoechst 33342 nuclear staining score: 0
[6]; HeLa, conc 0.1 μm
  Hoechst 33342 nuclear staining score: 0
[6]; HeLa, conc 1 μm
  Hoechst 33342 nuclear staining score: 1 (1 relating to weak activity comprising less than 70% of the cells)
[6]; Jily, conc 0.01 μm
  Hoechst 33342 nuclear staining score: 0
[6]; Jily, conc 0.1 μm
  Hoechst 33342 nuclear staining score: 0
[6]; Jily, conc 1 μm
  Hoechst 33342 nuclear staining score: 1 (1 relating to weak activity comprising less than 70% of the cells)
[6]; Jurkat, conc 0.01 μm
  Hoechst 33342 nuclear staining score: 0
[6]; Jurkat, conc 0.1 μm
  Hoechst 33342 nuclear staining score: 0
[6]; Jurkat, conc 1 μm
  Hoechst 33342 nuclear staining score: 2 (score 2 relating to strong activity comprising more than 70% of the cells)
[6]; MRC5, conc 0.01 μm
  Hoechst 33342 nuclear staining score: 0
[6]; MRC5, conc 0.1 μm
  Hoechst 33342 nuclear staining score: 0
[6]; MRC5, conc 1 μm
  Hoechst 33342 nuclear staining score: 1 (1 relating to weak activity comprising less than 70% of the cells)
[6]; PBLs, conc 0.01 μm
  Hoechst 33342 nuclear staining score: 0
[6]; PBLs, conc 0.1 μm
  Hoechst 33342 nuclear staining score: 0
[6]; PBLs, conc 1 μm
  Hoechst 33342 nuclear staining score: 0

## Nc1nonc1-c1nc2ccccc2n1CC(=O)c1ccc2ccccc2c1 [Example 42]
[1]
  IC50: 10 to 100 nM
[2]
  IC50: 10 to 100 nM
[3]
  IC50: 10 to 100 nM
[4]
  IC50: 10 to 100 nM
[5]
  IC50: 100 to 1000 nM
[6]; H460, conc 0.01 μm
  Hoechst 33342 nuclear staining score: 0
[6]; H460, conc 0.1 μm
  Hoechst 33342 nuclear staining score: 2 (score 2 relating to strong activity comprising more than 70% of the cells)
[6]; H460, conc 1 μm
  Hoechst 33342 nuclear staining score: 2 (score 2 relating to strong activity comprising more than 70% of the cells)
[6]; HeLa, conc 0.01 μm
  Hoechst 33342 nuclear staining score: 0
[6]; HeLa, conc 0.1 μm
  Hoechst 33342 nuclear staining score: 1 (1 relating to weak activity comprising less than 70% of the cells)
[6]; HeLa, conc 1 μm
  Hoechst 33342 nuclear staining score: 2 (score 2 relating to strong activity comprising more than 70% of the cells)
[6]; Jily, conc 0.01 μm
  Hoechst 33342 nuclear staining score: 0
[6]; Jily, conc 0.1 μm
  Hoechst 33342 nuclear staining score: 2 (score 2 relating to strong activity comprising more than 70% of the cells)
[6]; Jily, conc 1 μm
  Hoechst 33342 nuclear staining score: 2 (score 2 relating to strong activity comprising more than 70% of the cells)
[6]; Jurkat, conc 0.01 μm
  Hoechst 33342 nuclear staining score: 0
[6]; Jurkat, conc 0.1 μm
  Hoechst 33342 nuclear staining score: 2 (score 2 relating to strong activity comprising more than 70% of the cells)
[6]; Jurkat, conc 1 μm
  Hoechst 33342 nuclear staining score: 2 (score 2 relating to strong activity comprising more than 70% of the cells)
[6]; MRC5, conc 0.01 μm
  Hoechst 33342 nuclear staining score: 0
[6]; MRC5, conc 0.1 μm
  Hoechst 33342 nuclear staining score: 2 (score 2 relating to strong activity comprising more than 70% of the cells)
[6]; MRC5, conc 1 μm
  Hoechst 33342 nuclear staining score: 2 (score 2 relating to strong activity comprising more than 70% of the cells)
[6]; PBLs, conc 0.01 μm
  Hoechst 33342 nuclear staining score: 0
[6]; PBLs, conc 0.1 μm
  Hoechst 33342 nuclear staining score: 0
[6]; PBLs, conc 1 μm
  Hoechst 33342 nuclear staining score: 0
